According to PMC10056986 (Pharmaceuticals, 2023):
Where two headings read alike, the source gives them in different places.

Experiments:
[1] = biological target: influenza virus polymerase (PB1, PB2, NP, PA from A/California/04/2009 (H1N1) pdm09) (Influenza A virus, UniProt C3W5R8+C3W5R9); format: cell-based
GSK3 beta = GSK3 beta (Homo sapiens, UniProt P49841); test: biochemical
JNK1 = JNK1 (Homo sapiens, UniProt P45983); test: biochemical
op-delta = op-delta (Homo sapiens, UniProt P41143); test: cell-based
Chain of op-delta (P41143 whole entry): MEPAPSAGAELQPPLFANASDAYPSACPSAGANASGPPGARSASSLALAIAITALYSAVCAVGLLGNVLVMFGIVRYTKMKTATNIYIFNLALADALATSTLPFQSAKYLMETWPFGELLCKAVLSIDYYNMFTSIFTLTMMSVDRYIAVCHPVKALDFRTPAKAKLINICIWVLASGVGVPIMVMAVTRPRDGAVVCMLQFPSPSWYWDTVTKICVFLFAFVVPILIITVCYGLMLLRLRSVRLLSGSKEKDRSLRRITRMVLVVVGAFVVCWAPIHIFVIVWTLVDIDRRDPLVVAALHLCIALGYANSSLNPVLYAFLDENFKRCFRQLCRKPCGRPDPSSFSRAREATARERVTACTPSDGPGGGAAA

op-kappa = op-kappa (Homo sapiens, UniProt P41145); test: cell-based
Chain of op-kappa (P41145 whole entry): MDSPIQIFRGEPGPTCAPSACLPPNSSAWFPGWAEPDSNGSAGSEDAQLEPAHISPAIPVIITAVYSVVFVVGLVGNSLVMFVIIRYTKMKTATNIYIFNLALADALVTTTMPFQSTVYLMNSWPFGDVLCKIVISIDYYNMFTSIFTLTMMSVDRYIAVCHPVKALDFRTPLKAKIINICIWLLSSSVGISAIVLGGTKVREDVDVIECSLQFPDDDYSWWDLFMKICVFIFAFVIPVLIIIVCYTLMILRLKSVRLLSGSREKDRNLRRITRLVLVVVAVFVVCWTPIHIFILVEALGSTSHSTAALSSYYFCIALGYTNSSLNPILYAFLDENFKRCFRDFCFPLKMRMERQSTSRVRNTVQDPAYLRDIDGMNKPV

D1 = D1 (Homo sapiens, UniProt P21728); test: cell-based
Chain of D1 (P21728 whole entry): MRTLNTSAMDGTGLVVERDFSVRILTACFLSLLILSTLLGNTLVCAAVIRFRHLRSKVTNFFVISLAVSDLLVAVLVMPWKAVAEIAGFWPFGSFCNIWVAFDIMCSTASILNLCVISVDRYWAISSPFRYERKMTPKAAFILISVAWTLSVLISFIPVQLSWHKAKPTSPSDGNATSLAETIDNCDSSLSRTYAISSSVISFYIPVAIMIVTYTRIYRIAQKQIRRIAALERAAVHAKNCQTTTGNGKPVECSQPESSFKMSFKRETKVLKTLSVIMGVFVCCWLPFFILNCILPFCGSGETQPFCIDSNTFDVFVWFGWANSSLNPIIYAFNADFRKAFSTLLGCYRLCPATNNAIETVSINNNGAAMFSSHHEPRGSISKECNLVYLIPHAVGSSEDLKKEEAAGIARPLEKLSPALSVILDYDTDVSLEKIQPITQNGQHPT

Alpha1a [2] = biological target: T1, Alpha1a (Homo sapiens, UniProt P35348); test: cell-based
T1 sequence (P35348 whole entry): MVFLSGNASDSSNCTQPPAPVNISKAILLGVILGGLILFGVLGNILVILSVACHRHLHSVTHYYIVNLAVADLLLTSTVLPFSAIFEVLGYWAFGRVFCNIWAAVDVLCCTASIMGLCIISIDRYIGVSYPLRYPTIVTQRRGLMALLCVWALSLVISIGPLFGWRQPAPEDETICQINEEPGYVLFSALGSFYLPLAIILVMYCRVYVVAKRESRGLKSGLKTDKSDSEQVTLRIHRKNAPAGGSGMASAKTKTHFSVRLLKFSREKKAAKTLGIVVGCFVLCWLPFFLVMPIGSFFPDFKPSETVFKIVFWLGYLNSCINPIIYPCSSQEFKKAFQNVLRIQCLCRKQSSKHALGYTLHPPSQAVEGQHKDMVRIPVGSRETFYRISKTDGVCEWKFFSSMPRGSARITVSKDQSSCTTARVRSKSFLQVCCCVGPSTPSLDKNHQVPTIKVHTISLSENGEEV

Alpha2a = Alpha2a (Homo sapiens, UniProt P08913); test: cell-based
Chain of Alpha2a (P08913 whole entry): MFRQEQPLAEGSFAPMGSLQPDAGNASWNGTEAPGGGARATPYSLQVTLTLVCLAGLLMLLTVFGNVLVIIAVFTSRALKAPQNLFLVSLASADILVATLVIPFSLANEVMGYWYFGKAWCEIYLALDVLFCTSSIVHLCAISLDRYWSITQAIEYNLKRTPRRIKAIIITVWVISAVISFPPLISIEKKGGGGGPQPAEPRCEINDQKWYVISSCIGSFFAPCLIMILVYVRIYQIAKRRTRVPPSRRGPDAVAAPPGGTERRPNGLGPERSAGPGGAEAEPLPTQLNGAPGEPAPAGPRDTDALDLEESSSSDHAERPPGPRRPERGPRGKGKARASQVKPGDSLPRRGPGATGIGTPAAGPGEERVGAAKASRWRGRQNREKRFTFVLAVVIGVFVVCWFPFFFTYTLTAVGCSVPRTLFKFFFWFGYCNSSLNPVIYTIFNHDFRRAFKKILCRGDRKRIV

M3 [3] = biological target: T2, M3 (Homo sapiens, UniProt P20309); test: cell-based
T2 sequence (P20309 whole entry): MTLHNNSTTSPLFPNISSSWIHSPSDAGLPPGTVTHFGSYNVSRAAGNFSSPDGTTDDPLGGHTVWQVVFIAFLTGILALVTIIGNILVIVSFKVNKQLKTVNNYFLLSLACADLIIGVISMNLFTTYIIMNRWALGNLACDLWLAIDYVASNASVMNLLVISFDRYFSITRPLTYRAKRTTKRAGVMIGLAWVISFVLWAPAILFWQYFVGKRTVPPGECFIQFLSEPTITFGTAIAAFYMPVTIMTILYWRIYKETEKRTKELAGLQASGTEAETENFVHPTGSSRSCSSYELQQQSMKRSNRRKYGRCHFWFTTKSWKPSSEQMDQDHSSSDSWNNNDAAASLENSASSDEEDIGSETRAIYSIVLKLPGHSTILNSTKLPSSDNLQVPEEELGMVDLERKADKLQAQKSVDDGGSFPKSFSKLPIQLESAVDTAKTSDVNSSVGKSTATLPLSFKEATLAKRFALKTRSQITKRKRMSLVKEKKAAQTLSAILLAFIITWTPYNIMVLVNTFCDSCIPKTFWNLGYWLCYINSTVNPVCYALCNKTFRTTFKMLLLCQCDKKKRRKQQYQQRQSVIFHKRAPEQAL

H2 = H2 (Homo sapiens, UniProt P25021); test: cell-based
Chain of H2 (P25021 whole entry): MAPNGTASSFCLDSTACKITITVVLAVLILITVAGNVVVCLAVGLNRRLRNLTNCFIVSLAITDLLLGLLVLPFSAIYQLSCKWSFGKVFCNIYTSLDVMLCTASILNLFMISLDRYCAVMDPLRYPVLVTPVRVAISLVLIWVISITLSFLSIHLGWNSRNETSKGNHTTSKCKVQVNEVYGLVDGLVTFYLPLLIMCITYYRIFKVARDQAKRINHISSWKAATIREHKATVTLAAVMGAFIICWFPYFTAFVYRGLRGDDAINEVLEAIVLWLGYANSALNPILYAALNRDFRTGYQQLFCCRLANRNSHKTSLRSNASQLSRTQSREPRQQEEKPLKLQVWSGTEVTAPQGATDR

CCKa [4] = biological target: T3, CCKa (Homo sapiens, UniProt P32238); test: cell-based
T3 sequence (P32238 1-428): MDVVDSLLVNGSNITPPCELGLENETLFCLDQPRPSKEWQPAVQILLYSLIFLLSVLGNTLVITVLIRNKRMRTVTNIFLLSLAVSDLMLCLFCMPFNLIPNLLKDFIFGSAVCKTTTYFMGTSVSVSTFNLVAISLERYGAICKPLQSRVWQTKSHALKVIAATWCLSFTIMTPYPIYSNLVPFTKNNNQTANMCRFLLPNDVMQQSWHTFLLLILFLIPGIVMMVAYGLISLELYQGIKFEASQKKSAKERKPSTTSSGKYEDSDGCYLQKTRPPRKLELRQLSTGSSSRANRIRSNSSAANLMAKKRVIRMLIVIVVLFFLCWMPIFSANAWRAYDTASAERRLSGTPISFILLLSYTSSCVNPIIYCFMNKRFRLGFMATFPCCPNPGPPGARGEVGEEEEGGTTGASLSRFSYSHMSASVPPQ

op-mu = op-mu (Homo sapiens, UniProt P35372); test: cell-based
Chain of op-mu (P35372 whole entry): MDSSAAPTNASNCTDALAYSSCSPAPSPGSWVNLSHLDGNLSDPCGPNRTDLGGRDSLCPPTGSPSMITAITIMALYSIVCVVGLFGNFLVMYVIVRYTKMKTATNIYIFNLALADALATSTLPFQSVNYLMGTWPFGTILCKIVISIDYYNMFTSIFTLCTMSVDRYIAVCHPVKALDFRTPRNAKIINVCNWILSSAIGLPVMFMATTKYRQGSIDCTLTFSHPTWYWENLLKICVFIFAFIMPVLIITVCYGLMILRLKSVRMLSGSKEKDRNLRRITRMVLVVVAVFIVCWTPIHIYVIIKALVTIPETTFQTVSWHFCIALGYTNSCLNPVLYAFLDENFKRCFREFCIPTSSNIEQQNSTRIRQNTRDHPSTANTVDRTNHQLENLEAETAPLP

Alpha1a [5] = biological target: T1, Alpha1a; test: cell-based; remark: listed apart in the source
M3 [6] = biological target: T2, M3; test: cell-based; remark: listed apart in the source
CCKa [7] = biological target: T3, CCKa; test: cell-based; remark: listed apart in the source
5HT2A = 5HT2A (Homo sapiens, UniProt P28223); test: cell-based
Chain of 5HT2A (P28223 whole entry): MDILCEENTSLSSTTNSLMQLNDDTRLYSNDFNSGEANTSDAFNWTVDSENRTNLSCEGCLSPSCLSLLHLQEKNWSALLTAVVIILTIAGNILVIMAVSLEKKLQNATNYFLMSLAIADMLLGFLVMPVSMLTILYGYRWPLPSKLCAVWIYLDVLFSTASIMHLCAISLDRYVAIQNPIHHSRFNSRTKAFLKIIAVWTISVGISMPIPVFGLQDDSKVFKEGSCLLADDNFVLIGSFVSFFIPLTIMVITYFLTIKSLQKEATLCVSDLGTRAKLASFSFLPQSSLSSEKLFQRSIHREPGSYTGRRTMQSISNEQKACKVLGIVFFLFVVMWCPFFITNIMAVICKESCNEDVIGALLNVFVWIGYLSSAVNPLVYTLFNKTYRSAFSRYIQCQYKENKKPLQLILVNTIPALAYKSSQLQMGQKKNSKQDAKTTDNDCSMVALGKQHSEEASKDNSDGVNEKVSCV

V1a = V1a (Homo sapiens, UniProt P37288); test: cell-based
Chain of V1a (P37288 whole entry): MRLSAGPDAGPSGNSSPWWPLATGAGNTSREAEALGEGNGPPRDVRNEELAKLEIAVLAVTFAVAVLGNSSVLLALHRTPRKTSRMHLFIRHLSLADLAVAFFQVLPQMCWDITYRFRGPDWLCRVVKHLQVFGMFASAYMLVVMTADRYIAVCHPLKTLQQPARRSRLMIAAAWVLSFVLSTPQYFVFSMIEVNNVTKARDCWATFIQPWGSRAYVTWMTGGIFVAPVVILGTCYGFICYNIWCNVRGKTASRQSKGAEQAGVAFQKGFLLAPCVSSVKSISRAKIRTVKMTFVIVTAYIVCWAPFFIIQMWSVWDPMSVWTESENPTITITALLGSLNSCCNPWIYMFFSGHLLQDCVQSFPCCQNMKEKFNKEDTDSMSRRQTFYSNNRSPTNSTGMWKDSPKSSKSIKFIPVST

HSV-1 GHSV-UL46 = test: microbe, parasite or virus in culture; format: cell-based, herpes simplex virus type 1; conditions: Human alphaherpesvirus 1, Vero C1008, read-out: EC50 for Virus
EV71 Shenzhen/120F1/09 = test: microbe, parasite or virus in culture; format: cell-based, human enterovirus 71; conditions: Enterovirus A, EV71, RD, read-out: EC50 for Virus
HPIV-3 C243 = test: microbe, parasite or virus in culture; format: cell-based, human parainfluenza virus type 3; conditions: Human respirovirus 3, LLC-MK2, read-out: EC50 for Virus
HBV = test: microbe, parasite or virus in culture; format: cell-based; conditions: Hepatitis B virus, HepG2.2.15, read-out: EC50 for Virus
[8] = test system: influenza A virus WSN/33 (H1N1); parameters: species or system BALB/c mice; conditions: mouse, in vivo
A/PR/8/34 (H1N1) = test system: A/PR/8/34 (H1N1); parameters: species or system BALB/c mice; conditions: mouse, in vivo
22 GPCR targets = format: cell-based, human; conditions: read-out: EC50 (agonistic activity)
hERG potassium channel = hERG potassium channel (Homo sapiens, UniProt Q12809); test: in vitro
in vitro [9] = conditions: dog, CC50 (mean ± SD)
in vitro [10] = conditions: human
in vitro [11] = test: in vitro
CHK1 = CHK1 (Homo sapiens, UniProt O14757); test: biochemical
Chain of CHK1 (O14757 whole entry): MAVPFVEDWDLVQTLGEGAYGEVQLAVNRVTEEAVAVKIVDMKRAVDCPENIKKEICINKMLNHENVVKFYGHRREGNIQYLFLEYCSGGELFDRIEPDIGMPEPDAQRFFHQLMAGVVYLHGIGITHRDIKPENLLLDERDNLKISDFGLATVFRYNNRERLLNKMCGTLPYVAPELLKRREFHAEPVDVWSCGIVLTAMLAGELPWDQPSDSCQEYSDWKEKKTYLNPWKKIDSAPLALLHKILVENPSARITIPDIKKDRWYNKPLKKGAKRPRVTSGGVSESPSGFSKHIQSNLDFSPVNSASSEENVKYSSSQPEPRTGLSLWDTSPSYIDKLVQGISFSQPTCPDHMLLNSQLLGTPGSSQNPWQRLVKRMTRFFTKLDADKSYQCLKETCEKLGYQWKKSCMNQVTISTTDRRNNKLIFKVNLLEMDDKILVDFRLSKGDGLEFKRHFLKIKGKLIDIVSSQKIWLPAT

MINK = MINK (Homo sapiens, UniProt Q8N4C8); test: biochemical
PDK1 = PDK1 (Homo sapiens, UniProt O15530); test: biochemical
[12] = test system: H1N1 and H3N2 influenza A virus strains; test: microbe, parasite or virus in culture; conditions: MDCK
[13] = 10,000 nM, read-out: Inhibition at Maximum Concentration (%)

## O=C(O)[C@H]1C2CCC(CC2)[C@@H]1Nc1nc(-c2n[nH]c3ncc(F)cc23)nc(C2CC2)c1F [ZSP1273]
[1]; read-out: IC50, Mean ± SEM
  IC50: 0.000562 ± 0.000116 µM
[1]; read-out: IC50, experiment 1
  IC50: 0.000533 µM
[1]; read-out: IC50, experiment 2
  IC50: 0.000464 µM
[1]; read-out: IC50, experiment 3
  IC50: 0.00069 µM
GSK3 beta
  IC50: > 10 µM
JNK1
  IC50: > 10 µM
op-delta
  EC50: > 12 µM
op-delta; 12,000 nM
  Activity at Maximum Concentration (%): −10.64%
op-kappa
  EC50: > 12 µM
op-kappa; 12,000 nM
  Activity at Maximum Concentration (%): −18.96%
D1
  EC50: > 12 µM
D1; 12,000 nM
  Activity at Maximum Concentration (%): −2.15%
Alpha1a [2]
  EC50: > 12 µM
Alpha1a [2]; 12,000 nM
  Activity at Maximum Concentration (%): −2.93%
Alpha2a
  EC50: > 12 µM
Alpha2a; 12,000 nM
  Activity at Maximum Concentration (%): −2.1%
M3 [3]
  EC50: > 12 µM
M3 [3]; 12,000 nM
  Activity at Maximum Concentration (%): −2.89%
H2
  EC50: > 12 µM
H2; 12,000 nM
  Activity at Maximum Concentration (%): −3.46%
CCKa [4]
  EC50: > 12 µM
CCKa [4]; 12,000 nM
  Activity at Maximum Concentration (%): −4.4%
op-mu
  IC50: > 10 µM
op-mu; [13]
  inhibition at 10 µM: -24.5%
Alpha1a [5]
  IC50: > 10 µM
Alpha1a [5]; [13]
  inhibition at 10 µM: -56.5%
M3 [6]
  IC50: > 10 µM
M3 [6]; [13]
  inhibition at 10 µM: -4.78%
CCKa [7]
  IC50: > 10 µM
CCKa [7]; [13]
  inhibition at 10 µM: -17.6%
5HT2A
  IC50: > 10 µM
5HT2A; [13]
  inhibition at 10 µM: 2.56%
V1a
  IC50: > 10 µM
V1a; [13]
  inhibition at 10 µM: 7.24%
HSV-1 GHSV-UL46
  EC50: > 10 µM
EV71 Shenzhen/120F1/09
  EC50: > 10 µM
HPIV-3 C243
  EC50: > 10 µM
HBV
  EC50: > 10 µM
[8]
  animals died (of n = 8): one
  day on which body weight of surviving mice began to recover: 8 days
  day on which weight of surviving mice increased gradually: 6th
  mice died (of n = 8): no mice died
  survival rate: 100%
A/PR/8/34 (H1N1)
  lung index: significantly decreased
  viral titers in the lung tissues: 0
22 GPCR targets
  EC50: > 12 µM
hERG potassium channel
  inhibition at 40 µM: < 50%
In vitro [9]
  CC50: 1.63 ± 0.87 µM
In vitro [10]
  CC50: > 10 µM
In vitro [11]
  CC50: > 10 µM
CHK1
  IC50: > 10 µM
MINK
  IC50: > 10 µM
PDK1
  IC50: > 10 µM
[12]; read-out: EC50 values range
  EC50: 10 to 63 pM
[12]; read-out: average EC50 value range
  EC50: 12 to 63 pM
